The record followed here is US11453666B2, “Autotaxin inhibitory compounds” (Cancer Research Technology Limited, priority 2015, dated 2022).

For one assay, the target named is human recombinant ATX (Homo sapiens, UniProt Q13822). Briefly: Autotaxin (ATX) activity Quanta Red assay. The settings on record: Table 2: additional compounds tested for ATX activity (Quanta Red Assay); read-out: Activity. The assay is classed as biochemical. The procedure, abridged: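 Recombinant human ATX reaction stopped after 2 h with Quanta Red stop solution; fluorescence read at […]. Controls with DMSO, with and without ATX; IC50 in duplicate.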
Consider `COc1ccc(CNC(=O)CCc2nc3cccnc3n2Cc2ccc(OC)cc2)cc1` [Example 222, N-(4-Methoxy-benzyl)-3-[3-(4-methoxy-benzyl)-3H-imidazo[4,5-b]pyridin-2-yl]-propionamide], for which the IC50 worked out at 193 nM. Consider `CSc1ccc(CCNC(=O)CCc2nc3cccnc3n2Cc2ccccc2)cc1` [Example 230, 3-(3-Benzyl-3H-imidazo[4,5-b]pyridin-2-yl)-N-[2-(4-methylsulfanyl-phenyl)-ethyl]-propionamide], for which the IC50 was determined as 688 nM. Still for that read-out and setting: next, `CCOc1ccc(CCNC(=O)CCc2nc3cccnc3n2Cc2ccccc2)cc1` [Example 225, 3-(3-Benzyl-3H-imidazo[4,5-b]pyridin-2-yl)-N-[2-(4-ethoxy-phenyl)-ethyl]-propionamide]: 708 nM.

The assay is the same for the next values; noted with them: human recombinant ATX 0.8 μg/mL, 2 hours at room temperature, IC50 determined in duplicate; read-out: Activity (ATX activity, Quanta Red assay; IC50).
In the case of `C[C@H](NC(=O)CCc1nc2ccncc2n1Cc1ccc(OC(F)(F)F)cc1)c1ccc(Cl)cc1` [Example 122, N—[(S)-1-(4-chloro-phenyl)-ethyl]-3-[3-(4-trifluoromethoxy-benzyl)-3H-imidazo[4,5-c]pyridin-2-yl]-propionamide], the IC50 was 3 nM.

The assay is the same for the next values; noted with them: read-out: Activity (ATX activity, Quanta Red assay; IC50).
As to `O=C(CCc1nc2cccnc2n1Cc1ccc(OC(F)(F)F)cc1)N[C@@H](CO)Cc1ccccc1` [Example 203, N—((R)-1-Hydroxymethyl-2-phenyl-ethyl)-3-[3-(4-trifluoromethoxy-benzyl)-3H-imidazo[4,5-b]pyridin-2-yl]-propionamide], the IC50 stood at 2 nM. Regarding `COc1ccc(CNC(=O)CCc2nc3cccnc3n2Cc2ccc(OC(F)(F)F)cc2)cc1F` [Example 27, N-(3-Fluoro-4-methoxy-benzyl)-3-[3-(4-trifluoromethoxy-benzyl)-3H-imidazo[4,5-b]pyridin-2-yl]-propionamide], the IC50 came out at 4 nM.

For `O=C(CCc1nc2cccnc2n1Cc1ccc(F)cc1)NCc1ccc(F)cc1` [Example 94, N-(4-Fluoro-benzyl)-3-[3-(4-fluoro-benzyl)-3H-imidazo[4,5-b]pyridin-2-yl]-propionamide], the IC50 worked out at 25 nM. On the same count and under the same terms, next, `C[C@H](NC(=O)CSc1nc2cccnc2n1Cc1ccc(OC(F)(F)F)cc1)c1ccc(Cl)cc1` [Example 144, N-[(S)-1-(4-Chloro-phenyl)-ethyl]-2-[3-(4-trifluoromethoxy-benzyl)-3H-imidazo[4,5-b]pyridin-2-ylsulfanyl]-acetamide]: 2 nM; `COc1ccc(CNC(=O)CCc2nc3cccnc3n2Cc2cccc(C)c2)cc1` [Example 118, N-(4-Methoxy-benzyl)-3-[3-(3-methyl-benzyl)-3H-imidazo[4,5-b]pyridin-2-yl]-propionamide]: 726 nM; `C[C@H](NC(=O)CCc1cc2cc(F)cnc2n1Cc1ccc(OC(F)(F)F)cc1)c1ccc(F)cc1` [Example 139, N-[(S)-1-(4-Fluoro-phenyl)-ethyl]-3-[5-fluoro-1-(4-trifluoromethoxy-benzyl)-1H-pyrrolo[2,3-b]pyridin-2-yl]-propionamide]: 13 nM. With `CC(=O)N1CCC(CNC(=O)CCc2nc3cccnc3n2Cc2ccc(OC(F)(F)F)cc2)CC1` [Example 216, N-(1-Acetyl-piperidin-4-ylmethyl)-3-[3-(4-trifluoromethoxy-benzyl)-3H-imidazo[4,5-b]pyridin-2-yl]-propionamide], the IC50 was found to be 495 nM. The same measure, in the same setting: next, `C[C@H](NC(=O)NCc1nc2cccnc2n1Cc1ccc(F)c(F)c1)c1ccc(N2CCOCC2)cc1` [Example 163, 1-[3-(3,4-Difluoro-benzyl)-3H-imidazo[4,5-b]pyridin-2-ylmethyl]-3-[(S)-1-(4-morpholin-4-yl-phenyl)-ethyl]-urea]: 309 nM; `CC(NC(=O)CCc1nc2cccnc2n1Cc1ccc(OC(F)(F)F)cc1)C1CCOCC1` (stereo not drawn) [Example 56, N-[1-(Tetrahydro-pyran-4-yl)-ethyl]-3-[3-(4-trifluoromethoxy-benzyl)-3H-imidazo[4,5-b]pyridin-2-yl]-propionamide]: 45 nM; `C[C@@H](c1ccc(F)cc1)n1c(CCC(=O)N[C@H](Cc2ccccc2)C(=O)O)nc2cccnc21` [Example 201, (R)-2-(3-{3-[(S)-1-(4-Fluoro-phenyl)-ethyl]-3H-imidazo[4,5-b]pyridin-2-yl}-propionylamino)-3-phenyl-propionic acid]: 598 nM. On the same count and under the same terms, next, `O=C(CCc1nc2cccnc2n1Cc1ccc(OC(F)(F)F)cc1)NC(CO)c1ccc(F)cc1` (stereo not drawn) [Example 15, N-[1-(4-Fluoro-phenyl)-2-hydroxy-ethyl]-3-[3-(4-trifluoromethoxy-benzyl)-3H-imidazo[4,5-b]pyridin-2-yl]-propionamide]: 2 nM; `O=C(CCc1nc2cccnc2n1Cc1ccc(F)c(F)c1)NC(CO)c1ccc(Cl)cc1` (stereo not drawn) [Example 35, N-[1-(4-Chloro-phenyl)-2-hydroxy-ethyl]-3-[3-(3,4-difluoro-benzyl)-3H-imidazo[4,5-b]pyridin-2-yl]-propionamide]: 7 nM.

On to `COc1ccc(Cn2c(CCC(=O)NCc3cccc(F)c3)nc3cccnc32)cc1` [Example 117, N-(3-Fluoro-benzyl)-3-[3-(4-methoxy-benzyl)-3H-imidazo[4,5-b]pyridin-2-yl]-propionamide], for which the IC50 worked out at 373 nM. On the same count and under the same terms, in the case of `O=C(CCc1nc2cccnc2n1Cc1ccc(OC(F)(F)F)cc1)NC[C@@H](O)c1ccccc1` [Example 36, N-((S)-2-Hydroxy-2-phenyl-ethyl)-3-[3-(4-trifluoromethoxy-benzyl)-3H-imidazo[4,5-b]pyridin-2-yl]-propionamide] it was 7 nM; in that of `COc1ccc(Cn2c(CCC(=O)NCc3ccccc3F)nc3cccnc32)cc1` [Example 114, N-(2-Fluoro-benzyl)-3-[3-(4-methoxy-benzyl)-3H-imidazo[4,5-b]pyridin-2-yl]-propionamide], 301 nM. `CN(C)c1ccc(CNC(=O)CCc2nc3cccnc3n2Cc2ccc(OC(F)(F)F)cc2)cc1` [Example 31, N-(4-Dimethylamino-benzyl)-3-[3-(4-trifluoromethoxy-benzyl)-3H-imidazo[4,5-b]pyridin-2-yl]-propionamide]: the IC50 turned out to be 6 nM.

Regarding `O=C(CCc1nc2cccnc2n1Cc1ccc(OC(F)(F)F)cc1)N[C@@H](Cc1ccccc1)C(=O)O` [Example 199, (S)-3-Phenyl-2-{3-[3-(4-trifluoromethoxy-benzyl)-3H-imidazo[4,5-b]pyridin-2-yl]-propionylamino}-propionic acid], the IC50 was found to be 71 nM.

On to `COc1ccc(Cn2c(CCC(=O)N(C)Cc3ccc(F)cc3)nc3cccnc32)cc1` [Example 119, N-(4-Fluoro-benzyl)-3-[3-(4-methoxy-benzyl)-3H-imidazo[4,5-b]pyridin-2-yl]-N-methyl-propionamide], for which the IC50 amounted to 631 nM.

As to `C[C@H](NC(=O)CCc1nc2cccnc2n1Cc1ccc(OC(F)(F)F)cc1)c1ccc(N2CC[C@H](N(C)C)C2)cc1` [Example 169, N-{(S)-1-[4-((S)-3-Dimethylamino-pyrrolidin-1-yl)-phenyl]-ethyl}-3-[3-(4-trifluoromethoxy-benzyl)-3H-imidazo[4,5-b]pyridin-2-yl]-propionamide], the IC50 is 1 nM. Still for that read-out and setting: next, `O=C(CCc1nc2cccnc2n1Cc1ccc(OC(F)F)cc1)N[C@H](Cc1ccccc1)C(=O)O` [Example 197, (R)-2-{3-[3-(4-Difluoromethoxy-benzyl)-3H-imidazo[4,5-b]pyridin-2-yl]-propionylamino}-3-phenyl-propionic acid]: 5 nM.

As to `C[C@H](NC(=O)CCc1nc2cccnc2n1Cc1ccc(F)c(F)c1)c1ccc(N2CCN(C)CC2)cc1` [Example 182], the IC50 was found to be 8 nM. For `Cc1cnc2c(c1)nc(CCC(=O)N[C@@H](C)c1ccc(Cl)cc1)n2Cc1ccc(F)cc1` [Example 213, N-[(S)-1-(4-Chloro-phenyl)-ethyl]-3-[3-(4-fluoro-benzyl)-6-methyl-3H-imidazo[4,5-b]pyridin-2-yl]-propionamide], the IC50 came out at 17 nM. On to `COc1ccc(CNC(=O)CCc2nc3cccnc3n2Cc2ccc(C)cc2)cc1` [Example 103, N-(4-Methoxy-benzyl)-3-[3-(4-methyl-benzyl)-3H-imidazo[4,5-b]pyridin-2-yl]-propionamide], for which the IC50 is 57 nM. Still for that read-out and setting: next, `C[C@H](NC(=O)CCc1nc2cccnc2n1Cc1ccc(O)cc1)c1ccc(F)cc1` [Example 155, N—[(S)-1-(4-fluoro-phenyl)-ethyl]-3-[3-(4-hydroxy-benzyl)-3H-imidazo[4,5-b]pyridin-2-yl]-propionamide]: 254 nM; `CCC[C@H](NC(=O)CCc1nc2ccncc2n1Cc1ccc(F)cc1)c1ccccc1` [Example 134, 3-[3-(4-Fluoro-benzyl)-3H-imidazo[4,5-c]pyridin-2-yl]-N-((S)-1-phenyl-butyl)-propionamide]: 133 nM. Still for that read-out and setting: in the case of `C[C@H](NC(=O)CCc1nc2ccncc2n1Cc1ccc(F)cc1)c1ccccc1` [Example 130, 3-[3-(4-Fluoro-benzyl)-3H-imidazo[4,5-c]pyridin-2-yl]-N-((S)-1-phenyl-ethyl)-propionamide] it was 21 nM. On the same count and under the same terms, next, `COc1ccc(Cn2c(CCC(=O)NCc3ccc(F)c(F)c3)nc3cccnc32)cc1` [Example 107, N-(3,4-Difluoro-benzyl)-3-[3-(4-methoxy-benzyl)-3H-imidazo[4,5-b]pyridin-2-yl]-propionamide]: 102 nM; `COc1ccc(Cn2c(CCC(=O)N[C@@H](C)c3ccc(C)cc3)nc3cccnc32)cc1` [Example 90, 3-[3-(4-Methoxy-benzyl)-3H-imidazo[4,5-b]pyridin-2-yl]-N-((S)-1-p-tolyl-ethyl)-propionamide]: 9 nM; `CC[C@H](NC(=O)CCc1nc2cccnc2n1Cc1ccc(F)c(F)c1)c1ccccc1` [Example 89, 3-[3-(3,4-Difluoro-benzyl)-3H-imidazo[4,5-b]pyridin-2-yl]-N-((S)-1-phenyl-propyl)-propionamide]: 8 nM.
